No end group written: not given here.
Key:
[1] = Turbidity analysis of peptide LLPS at 20 mM at varying pH; format: physicochemical; conditions: mean, Figure S8, for NMR experiment
Procedure: 150 μl of 20 mM peptide solutions were prepared in 20 mM Tris buffer. The pH was adjusted to the desired value of 6, 7, 8, 9, 10, and 11 then the turbidity of 35 μl was measured in triplicates at λ = 500 nm using a BioTek H1 synergy plate reader (purchased from Lumitron, Israel).
Supplementary Figure 7. CD analysis of peptides at 1 mM with and without NaCl.
Supplementary Figure 8. a. Turbidity analysis of peptide LLPS at a concentration of 20 mM at varying pH values. WGR-10 contains a Pro/Gln substitution. Each point represents an average of n=3, data are presented as mean values +/- SD b. Optical microscopy images of peptides at 20 mM at pH
10. Scale bar=50 μm. Source data are provided as a Source Data file. […]

[2] = Encapsulation efficiency of peptide droplets, rhodamine B payload; format: physicochemical; conditions: C initial 10 µM, 20 mM peptide; for %EE: 20 mM Tris + 0.2 M NaCl pH 8, 15,000 g 10 min, supernatant absorbance 555 nm
Text: Next, we studied how peptide composition affects the encapsulation efficiency of the droplets by using GFP, rhodamine B, and fluorescein as fluorescent payload model systems (Fig. 4). We analyzed the encapsulation efficiency of the fluorescent payloads by using both confocal microscopy and absorbance measurements of the payloads in the dilute vs. the condensed phase (Fig. 4a–c). […] WGR-1 has the highest EE of fluorescein. In addition to π-π interactions, WGR-1 might form hydrogen bonding with the hydroxyl groups or electrostatic interactions with the deprotonated carboxylic acid of the dye.
Stock solutions (1 mM) of the fluorescein and rhodamine B dye molecules were prepared in 20 mM Tris buffer. Coacervate solutions of 20 mM peptide were prepared in 20 mM Tris + 0.2 M NaCl at pH 8. From these, a volume of 148.5 µl was mixed with 1.5 µl of dye solution in a 1.5 ml Eppendorf tube and pipetted. After 10 min the samples were centrifuged at 15,000 × g for 10 min. A volume of 120 μl from the supernatant was collected and vortexed and then the absorbance of 35 μl triplicates was measured (at λ = 490 nm for fluorescein and λ = 555 nm for RhB) in a 384 well black plate by Biotek H1 synergy plate reader (purchased from Lumitron, Israel). For GFP, a 7.5 µl of 20 mM Tris buffer to a 7.5 μl GFP aliquot from the purchased stock solution. The 15 µl of GFP solution was added to 135 µl of peptide solution and was mixed in a 1.5 ml Eppendorf tube and pipetted. The concentration of GFP at the supernatant was measured via fluorescence. All experiments were performed in triplicate. The concentration of the supernatant solutions determinate by calibration curves. Imaging was made to 30 μl of uncentrifuged samples. Efficiency of encapsulation (%EE) was calculated using Eq. 2. 2 %EE=CT−Csup/CT

## WGRGRGRGWPGVGY [WGR-1]
[1]; pH 6
  Turbidity as asorbance at 500 nm: 0.0085
[1]; pH 7
  Turbidity as asorbance at 500 nm: 0.019
[1]; pH 8
  Turbidity as asorbance at 500 nm: 0.01867
[1]; pH 9
  Turbidity as asorbance at 500 nm: 0.03567
[1]; pH 10
  Turbidity as asorbance at 500 nm: 1.253
[1]; pH 11
  Turbidity as asorbance at 500 nm: 1.988
[2]; replicate 1, given as fraction
  %EE: 0.9106
[2]; replicate 2, given as fraction
  %EE: 0.9029
[2]; replicate 3, given as fraction
  %EE: 0.8168
[2]; 20 mM Tris + 0.2 M NaCl pH 8, supernatant absorbance 555 nm, mean of n=3, in percent
  Encapsulation efficiency (EE): 87.6774%

Source: PMC9879991, “Biomolecular condensates formed by designer minimalistic peptides” (Nature Communications, 2023)
